From patent US20210169824A1, “USE OF CANNABINOIDS IN THE TREATMENT OF SEIZURES AS ASSOCIATED WITH LENNOX-GASTAUT SYNDROME” (GW Research Limited, priority 2017, published 2021)

How the values were obtained:
[1] = tested on: seizures associated with Lennox-Gastaut syndrome (LGS) in treatment-resistant patients; experiment: Pooled analysis of two randomised, double-blind, placebo-controlled 14-week studies of add-on cannabidiol in LGS patients deemed AED treatment failures; assay type: in vivo, human; settings: for Total Seizure Frequency, Treatment Difference vs. Placebo / Drop Seizure Frequency, Treatment Difference vs. Placebo: Hodges-Lehmann estimated median difference; for Drop Seizure Frequency, Median % Change During Treatment / Total Seizure Frequency, Median % Change During Treatment: from baseline
From the text: In two placebo-controlled studies of CBD as a treatment for seizures associated with LGS, cannabidiol was used as add-on treatment in patients who were defined as treatment-resistant. Patients had previously tried and stopped using a median of 6 AEDs, and were being maintained on a median of 3 AEDs.
The first study was a 1:1 randomised, double-blind, 14-week comparison of cannabidiol oral solution (CBD-OS) versus placebo. The treatment period consisted of a two-week titration period followed by a 12-week maintenance period. The treatment period was followed by a 10-day taper period and a four-week follow-up period. The study aimed to determine the efficacy, safety and tolerability of 20 mg/kg/day cannabidiol compared with placebo.
The second study was a 1:1:1 randomised, double-blind, 14-week comparison of two dose levels of cannabidiol (10 mg/kg/day and 20 mg/kg/day) versus placebo. The treatment period consisted of a two-week titration period followed by a 12-week maintenance period. The treatment period was followed by a 10-day taper period and a four-week follow-up period. The study aimed to determine the efficacy, safety and tolerability of two dose levels of CBD-OS compared with placebo. Patients in the placebo group were split into two equivalent cohorts; half receiving 10 mg/kg/day dosing volumes and half receiving 20 mg/kg/day dosing volumes.
In order to ensure that caregivers were able to interpret a seizure correctly, all caregivers underwent pre-study training, and their description and classification of a seizure was independently verified by a committee appointed by the Epilepsy Study Consortium
Despite the number of medications, the patients were already taking, the median number of drop seizures at baseline was in excess of 75 per month in both studies. These were patient populations with a high unmet medical need, who had already tried and failed multiple AEDs. In many cases, the AEDs they were being maintained on included those approved for the treatment of LGS; rufinamide, lamotrigine or topiramate.
An analysis of the change in seizure frequency for CBD vs placebo in patients who were currently taking, or had previously taken and stopped, each of rufinamide, lamotrigine or topiramate; felbamate was undertaken. Such patients can be reasonably defined as AED treatment failures.

[2] = patients with epilepsy, open label study, Gaston et al. 2017; cited from earlier work
[3] = Felbamate treatment failures, 10 mg/kg/day, N = 22
[4] = Felbamate treatment failures, 10 mg/kg/day, N = 22, P-value 0.1921 vs placebo
[5] = Felbamate treatment failures, 20 mg/kg/day, N = 38
[6] = Felbamate treatment failures, 20 mg/kg/day, N = 38, P-value 0.0068 vs placebo
[7] = Lamotrigine treatment failures, 10 mg/kg/day, N = 49
[8] = Lamotrigine treatment failures, 10 mg/kg/day, N = 49, P-value 0.0131 vs placebo
[9] = Lamotrigine treatment failures, 20 mg/kg/day, N = 114
[10] = Lamotrigine treatment failures, 20 mg/kg/day, N = 114, P-value <0.0001 vs placebo
[11] = Rufinamide treatment failures, 10 mg/kg/day, N = 47
[12] = Rufinamide treatment failures, 10 mg/kg/day, N = 47, P-value 0.1836 vs placebo
[13] = Rufinamide treatment failures, 20 mg/kg/day, N = 95
[14] = Rufinamide treatment failures, 20 mg/kg/day, N = 95, P-value 0.0011 vs placebo
[15] = Topiramate treatment failures, 10 mg/kg/day, N = 56
[16] = Topiramate treatment failures, 10 mg/kg/day, N = 56, P-value 0.0517 vs placebo
[17] = Topiramate treatment failures, 20 mg/kg/day, N = 111
[18] = Topiramate treatment failures, 20 mg/kg/day, N = 111, P-value 0.0016 vs placebo
[19] = felbamate treatment failures, 20 mg/kg dose
[20] = lamotrigine treatment failures, both doses (10 and 20 mg/kg/day)
[21] = rufinamide treatment failures, 20 mg/kg/day dose

C=C(C)[C@@H]1CCC(C)=C[C@H]1c1c(O)cc(CCCCC)cc1O [Cannabidiol]
reduction in drop and total seizure frequency in patients deemed to be treatment failures ([1]; CBD combined with rufinamide, lamotrigine, topiramate or felbamate): statistically significant reduction | Total Seizure Frequency, Treatment Difference vs. Placebo ([1]; Felbamate treatment failures, 10 mg/kg/day, P-value 0.0282): −21.77% | Drop Seizure Frequency, Treatment Difference vs. Placebo ([1]; Felbamate treatment failures, 10 mg/kg/day, P-value 0.2984): −11.57% | Drop Seizure Frequency, Treatment Period Median [1, 3]: 68.26 per 28 Days | Total Seizure Frequency, Treatment Period Median [1, 3]: 103.09 per 28 Days | Number of Responders, ≥50% Reduction in Drop Seizure Frequency from Baseline [1, 4]: 6 | Responders (%), ≥50% Reduction in Drop Seizure Frequency from Baseline [1, 4]: 27.3% | Drop Seizure Frequency, Median % Change During Treatment [1, 3]: −30.50% | Total Seizure Frequency, Median % Change During Treatment [1, 3]: −34.36% | Drop Seizure Frequency, Treatment Difference vs. Placebo ([1]; Felbamate treatment failures, 20 mg/kg/day, P-value 0.0930): −17.76% | Total Seizure Frequency, Treatment Difference vs. Placebo ([1]; Felbamate treatment failures, 20 mg/kg/day, P-value 0.1179): −14.58% | Drop Seizure Frequency, Treatment Period Median [1, 5]: 47.32 per 28 Days | Total Seizure Frequency, Treatment Period Median [1, 5]: 102.20 per 28 Days | Number of Responders, ≥50% Reduction in Drop Seizure Frequency from Baseline [1, 6]: 15 | Responders (%), ≥50% Reduction in Drop Seizure Frequency from Baseline [1, 6]: 39.5% | Drop Seizure Frequency, Median % Change During Treatment [1, 5]: −31.62% | Total Seizure Frequency, Median % Change During Treatment [1, 5]: −27.56% | Drop Seizure Frequency, Treatment Difference vs. Placebo ([1]; Lamotrigine treatment failures, 10 mg/kg/day, P-value 0.0040): −18.79% | Total Seizure Frequency, Treatment Difference vs. Placebo ([1]; Lamotrigine treatment failures, 10 mg/kg/day, P-value 0.0044): −19.63% | Drop Seizure Frequency, Treatment Period Median [1, 7]: 40.29 per 28 Days | Total Seizure Frequency, Treatment Period Median [1, 7]: 68.41 per 28 Days | Number of Responders, ≥50% Reduction in Drop Seizure Frequency from Baseline [1, 8]: 17 | Responders (%), ≥50% Reduction in Drop Seizure Frequency from Baseline [1, 8]: 34.7% | Drop Seizure Frequency, Median % Change During Treatment [1, 7]: −37.16% | Total Seizure Frequency, Median % Change During Treatment [1, 7]: −32.87% | Total Seizure Frequency, Treatment Difference vs. Placebo ([1]; Lamotrigine treatment failures, 20 mg/kg/day, P-value 0.0008): −17.35% | Drop Seizure Frequency, Treatment Difference vs. Placebo ([1]; Lamotrigine treatment failures, 20 mg/kg/day, P-value 0.0023): −19.24% | Drop Seizure Frequency, Treatment Period Median [1, 9]: 36.30 per 28 Days | Total Seizure Frequency, Treatment Period Median [1, 9]: 98.64 per 28 Days | Number of Responders, ≥50% Reduction in Drop Seizure Frequency from Baseline [1, 10]: 47 | Responders (%), ≥50% Reduction in Drop Seizure Frequency from Baseline [1, 10]: 41.2% | Drop Seizure Frequency, Median % Change During Treatment [1, 9]: −40.74% | Total Seizure Frequency, Median % Change During Treatment [1, 9]: −34.44% | Total Seizure Frequency, Treatment Difference vs. Placebo ([1]; Rufinamide treatment failures, 10 mg/kg/day, P-value 0.0062): −17.54% | Drop Seizure Frequency, Treatment Difference vs. Placebo ([1]; Rufinamide treatment failures, 10 mg/kg/day, P-value 0.1314): −9.80% | Drop Seizure Frequency, Treatment Period Median [1, 11]: 56.00 per 28 Days | Total Seizure Frequency, Treatment Period Median [1, 11]: 95.51 per 28 Days | Number of Responders, ≥50% Reduction in Drop Seizure Frequency from Baseline [1, 12]: 13 | Responders (%), ≥50% Reduction in Drop Seizure Frequency from Baseline [1, 12]: 27.7% | Drop Seizure Frequency, Median % Change During Treatment [1, 11]: −32.95% | Total Seizure Frequency, Median % Change During Treatment [1, 11]: −31.25% | Total Seizure Frequency, Treatment Difference vs. Placebo ([1]; Rufinamide treatment failures, 20 mg/kg/day, P-value 0.0008): −19.43% | Drop Seizure Frequency, Treatment Difference vs. Placebo ([1]; Rufinamide treatment failures, 20 mg/kg/day, P-value 0.0022): −19.34% | Drop Seizure Frequency, Treatment Period Median [1, 13]: 42.30 per 28 Days | Total Seizure Frequency, Treatment Period Median [1, 13]: 102.20 per 28 Days | Number of Responders, ≥50% Reduction in Drop Seizure Frequency from Baseline [1, 14]: 37 | Responders (%), ≥50% Reduction in Drop Seizure Frequency from Baseline [1, 14]: 38.9% | Drop Seizure Frequency, Median % Change During Treatment [1, 13]: −38.78% | Total Seizure Frequency, Median % Change During Treatment [1, 13]: −34.90% | Total Seizure Frequency, Treatment Difference vs. Placebo ([1]; Topiramate treatment failures, 10 mg/kg/day, P-value 0.0047): −17.04% | Drop Seizure Frequency, Treatment Difference vs. Placebo ([1]; Topiramate treatment failures, 10 mg/kg/day, P-value 0.0074): −16.92% | Drop Seizure Frequency, Treatment Period Median [1, 15]: 57.02 per 28 Days | Total Seizure Frequency, Treatment Period Median [1, 15]: 88.31 per 28 Days | Number of Responders, ≥50% Reduction in Drop Seizure Frequency from Baseline [1, 16]: 17 | Responders (%), ≥50% Reduction in Drop Seizure Frequency from Baseline [1, 16]: 30.4% | Drop Seizure Frequency, Median % Change During Treatment [1, 15]: −36.08% | Total Seizure Frequency, Median % Change During Treatment [1, 15]: −31.57% | Total Seizure Frequency, Treatment Difference vs. Placebo ([1]; Topiramate treatment failures, 20 mg/kg/day, P-value 0.0034): −15.87% | Drop Seizure Frequency, Treatment Difference vs. Placebo ([1]; Topiramate treatment failures, 20 mg/kg/day, P-value 0.0069): −16.83% | Drop Seizure Frequency, Treatment Period Median [1, 17]: 44.00 per 28 Days | Total Seizure Frequency, Treatment Period Median [1, 17]: 101.71 per 28 Days | Number of Responders, ≥50% Reduction in Drop Seizure Frequency from Baseline [1, 18]: 40 | Responders (%), ≥50% Reduction in Drop Seizure Frequency from Baseline [1, 18]: 36.0% | Drop Seizure Frequency, Median % Change During Treatment [1, 17]: −34.13% | Total Seizure Frequency, Median % Change During Treatment [1, 17]: −33.76% | proportion of patients with a 50% reduction in drop seizure frequency compared with placebo [1, 19]: statistically significantly greater proportion | reduction in drop seizure frequency compared with placebo [1, 19]: marginally statistically significantly greater reduction | proportion of patients with a 50% reduction in drop seizure frequency compared with placebo [1, 20]: significantly greater proportion | reduction in both drop and total seizure frequency compared with placebo [1, 20]: significantly greater reduction | benefit in patients taking without seizure control, or having stopped, the AEDs authorised for LGS in the EU ([1]; pooled data from two studies, effect most significant at 20 mg/kg/day): significant benefit | proportion of patients with a 50% reduction in drop seizure frequency compared with placebo [1, 21]: significantly greater proportion | reduction in drop and total seizure frequency compared with placebo [1, 21]: significantly greater reduction | reduction in both drop and total seizure frequency compared with placebo ([1]; topiramate treatment failures, both doses (10 and 20 mg/kg/day)): significantly greater reduction | proportion of patients with a 50% reduction in drop seizure frequency compared with placebo ([1]; topiramate treatment failures, both doses, statistical significance for 20 mg/kg/day, only marginal for 10 mg/kg/day): greater proportion | serum levels of some AEDs in the presence of CBD [2]: increased
